Assay results published in patent US9688627B2, “Lactam compounds as EP4 receptor-selective agonists for use in the treatment of EP4-mediated diseases and conditions” (Cayman Chemical Company, Inc., priority 2013, dated 2017).

Key:
rat EP4 receptor [1] = biological target: T1, rat EP4 receptor (Rattus norvegicus, UniProt P43114); assay: SEAP activity assay on EP4 STEP plate; assay type: cell-based; conditions: SEAP luminescence, 6-8 hours of stimulation; read-out: STEP cell functional assay EC50 SEAP/EP4
T1 construct: cells seeded on STEP plates
Excerpt: (§1) 2. […] In addition each concentration had triplicates. […] 4. […] Cover the plate with the lid. […] 6. […] 7. […] 8.

rat EP2 receptor = biological target: T2, rat EP2 receptor (Rattus norvegicus, UniProt Q62928); assay: SEAP activity assay on EP2 STEP plate; assay type: cell-based; conditions: SEAP luminescence, 6-8 hours of stimulation; read-out: STEP cell functional assay EC50 SEAP/EP2
T2 construct: cells seeded on STEP plates
Excerpt: as §1

[2] = biological target: T3, Human Prostanoid EP4 Receptor (Homo sapiens, UniProt P35408); assay: Radioligand binding assay, agonist site of human prostanoid EP4 receptor in transfected HEK-293 cells; conditions: for inhibition at 0.1 µM: 2 h, pH 6, read-out: hEP4 receptor binding, % @ 100 nM, @ 100 nM test compound; for IC50: read-out: hEP4 receptor binding IC50; for Ki: read-out: hEP4 receptor binding Ki
T3 construct: expressed in transfected cells; host or cells: HEK-293 cells (cell membrane homogenates)
Procedure: Radioligand Binding Assay for the Evaluation of the Affinity of Compounds for the Agonist Site of the Human Prostanoid EP4 Receptor in Transfected HEK-293 Cells
Following incubation, the samples are filtered rapidly under vacuum through glass fiber filters (GF/B, Packard) presoaked with 0.3% PEI and rinsed several times with ice-cold 50 mM Tris-HCl using a 96-sample cell harvester (Unifilter, Packard). The filters are dried then counted for radioactivity in a scintillation counter (Topcount, Packard) using a scintillation cocktail (Microscint 0, Packard).

rat EP4 receptor [3] = biological target: T1, rat EP4 receptor; assay: cAMP level assay on EP4 STEP plate; assay type: cell-based; conditions: cAMP by ELISA, 30 minutes, 500 μM IBMX; read-out: STEP cell functional assay EC50 cAMP/EP4
Excerpt: Functional Cellular Assays (STEP Plate Format)
Procedure of cAMP Assay for EP2/EP4 Agonist
3. […] In addition each concentration had triplicates.
6. Aspirate the supernatant.

T2 sequence (Q62928 whole entry): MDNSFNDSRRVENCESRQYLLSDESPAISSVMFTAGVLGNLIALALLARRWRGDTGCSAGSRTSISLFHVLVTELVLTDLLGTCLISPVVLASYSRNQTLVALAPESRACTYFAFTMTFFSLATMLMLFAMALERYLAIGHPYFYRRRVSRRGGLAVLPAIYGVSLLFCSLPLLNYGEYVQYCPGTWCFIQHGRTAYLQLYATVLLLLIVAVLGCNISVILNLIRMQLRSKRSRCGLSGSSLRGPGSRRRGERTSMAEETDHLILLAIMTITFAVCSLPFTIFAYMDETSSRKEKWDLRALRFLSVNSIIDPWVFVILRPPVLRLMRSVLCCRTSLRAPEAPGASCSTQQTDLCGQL
T1 sequence (P43114 whole entry): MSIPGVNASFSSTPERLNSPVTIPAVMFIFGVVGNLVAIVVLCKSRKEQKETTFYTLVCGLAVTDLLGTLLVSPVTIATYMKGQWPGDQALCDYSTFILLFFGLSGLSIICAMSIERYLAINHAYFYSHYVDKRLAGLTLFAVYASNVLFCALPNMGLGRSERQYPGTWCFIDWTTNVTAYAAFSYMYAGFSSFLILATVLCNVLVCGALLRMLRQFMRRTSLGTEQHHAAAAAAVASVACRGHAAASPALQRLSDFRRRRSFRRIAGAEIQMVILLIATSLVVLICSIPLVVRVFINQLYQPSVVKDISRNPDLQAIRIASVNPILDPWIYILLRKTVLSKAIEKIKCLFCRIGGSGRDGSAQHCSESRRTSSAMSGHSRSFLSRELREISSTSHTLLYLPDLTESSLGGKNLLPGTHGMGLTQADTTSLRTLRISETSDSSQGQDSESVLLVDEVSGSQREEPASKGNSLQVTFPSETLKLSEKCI
T3 sequence (P35408 whole entry): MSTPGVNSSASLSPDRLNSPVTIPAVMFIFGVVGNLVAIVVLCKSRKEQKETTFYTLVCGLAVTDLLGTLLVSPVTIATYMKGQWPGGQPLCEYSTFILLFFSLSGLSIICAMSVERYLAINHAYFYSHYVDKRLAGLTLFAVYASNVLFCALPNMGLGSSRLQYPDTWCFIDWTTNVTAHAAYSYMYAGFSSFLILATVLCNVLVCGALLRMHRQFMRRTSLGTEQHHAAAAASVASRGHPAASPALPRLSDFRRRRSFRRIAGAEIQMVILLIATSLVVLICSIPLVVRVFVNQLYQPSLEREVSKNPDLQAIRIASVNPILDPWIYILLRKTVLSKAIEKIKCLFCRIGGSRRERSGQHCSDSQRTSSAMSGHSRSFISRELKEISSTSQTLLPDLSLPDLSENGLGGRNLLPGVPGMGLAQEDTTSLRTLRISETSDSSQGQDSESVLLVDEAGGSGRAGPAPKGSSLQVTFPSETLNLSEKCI

CC#CCC(C)[C@H](O)/C=C/[C@H]1CCC(=O)N1CCCCCCC(=O)O (mixture of isomers) [Example 1C, 7-((2R)-2-((3S,4R/S,E)-3-hydroxy-4-methyloct-1-en-6-yn-1-yl)-5-oxopyrrolidin-1-yl)heptanoic acid]
EC50 (rat EP4 receptor [1]): 0.67 nM | EC50 (rat EP2 receptor): 760 nM | inhibition at 0.1 µM [2]: 86%

CC#CCC(C)[C@@H](O)/C=C/[C@H]1CCC(=O)N1CCCCCCC(=O)O (mixture of isomers) [Example 1D, 7-((2R)-2-((3R,4R/S,E)-3-hydroxy-4-methyloct-1-en-6-yn-1-yl)-5-oxopyrrolidin-1-yl)heptanoic acid]
EC50 (rat EP4 receptor [1]): 4.82 nM | EC50 (rat EP2 receptor): > 10000 nM | inhibition at 0.1 µM [2]: 11%

CCC#CCC(C)[C@H](O)/C=C/[C@H]1CCC(=O)N1CCCCCCC(=O)O (mixture of isomers) [Example 2C, 7-((2R)-2-((3S,4R/S,E)-3-hydroxy-4-methylnon-1-en-6-yn-1-yl)-5-oxopyrrolidin-1-yl)heptanoic acid]
EC50 (rat EP4 receptor [1]): 0.064 nM | EC50 (rat EP2 receptor): 905 nM | IC50 [2]: 4 nM | Ki [2]: 1.5 nM

CC#CCC(C)[C@H](O)/C=C/[C@H]1CCC(=O)N1CCc1ccc(C(=O)OC)cc1 (mixture of isomers) [Example 8A, methyl 4-(2-((2R)-2-((3S,4R/S,E)-3-hydroxy-4-methyloct-1-en-6-yn-1-yl)-5-oxopyrrolidin-1-yl)ethyl)benzoate]
EC50 (rat EP4 receptor [1]): 6.74 nM | EC50 (rat EP2 receptor): 364 nM

CC#CCC(C)[C@H](O)/C=C/[C@H]1CCC(=O)N1CCc1ccc(C(=O)O)cc1 (mixture of isomers) [Example 8C, 4-(2-((2R)-2-((3S,4R/S,E)-3-hydroxy-4-methyloct-1-en-6-yn-1-yl)-5-oxopyrrolidin-1-yl)ethyl)benzoic acid]
EC50 (rat EP4 receptor [1]): 0.19 nM | EC50 (rat EP2 receptor): 120 nM | IC50 [2]: 1.3 nM | Ki [2]: 0.47 nM

CC#CCC(C)[C@@H](O)/C=C/[C@H]1CCC(=O)N1CCc1ccc(C(=O)O)cc1 (mixture of isomers) [Example 8D, 4-(2-((2R)-2-((3R,4R/S,E)-3-hydroxy-4-methyloct-1-en-6-yn-1-yl)-5-oxopyrrolidin-1-yl)ethyl)benzoic acid]
EC50 (rat EP4 receptor [1]): 13.4 nM | EC50 (rat EP2 receptor): 1130 nM

CC(CC#Cc1ccccc1)[C@H](O)/C=C/[C@H]1CCC(=O)N1CCc1ccc(C(=O)O)cc1 (mixture of isomers) [Example 11C, 4-(2-((2R)-2-((3S,4R/S,E)-3-hydroxy-4-methyl-7-phenylhept-1-en-6-yn-1-yl)-5-oxopyrrolidin-1-yl)ethyl)benzoic acid]
EC50 (rat EP4 receptor [1]): 0.054 nM | EC50 (rat EP2 receptor): 2960 nM

CC(CC#Cc1ccccc1)[C@@H](O)/C=C/[C@H]1CCC(=O)N1CCc1ccc(C(=O)O)cc1 (mixture of isomers) [Example 11D, 4-(2-((2R)-2-((3R,4R/S,E)-3-hydroxy-4-methyl-7-phenylhept-1-en-6-yn-1-yl)-5-oxopyrrolidin-1-yl)ethyl)benzoic acid]
EC50 (rat EP4 receptor [1]): 3.51 nM | EC50 (rat EP2 receptor): 1750 nM

CC#CCC(C)[C@H](O)/C=C/[C@H]1CCC(=O)N1Cc1ccc(CC(=O)O)cc1 (mixture of isomers) [Example 12C, 2-(4-(((2R)-2-((3S,4R/S,E)-3-hydroxy-4-methyloct-1-en-6-yn-1-yl)-5-oxopyrrolidin-1-yl)methyl)phenyl)acetic acid]
EC50 (rat EP4 receptor [1]): 2290 nM | EC50 (rat EP2 receptor): > 10000 nM

CC#CCC(C)[C@@H](O)/C=C/[C@H]1CCC(=O)N1Cc1ccc(CC(=O)O)cc1 (mixture of isomers) [Example 12D, 2-(4-(((2R)-2-((3R,4R/S,E)-3-hydroxy-4-methyloct-1-en-6-yn-1-yl)-5-oxopyrrolidin-1-yl)methyl)phenyl)acetic acid]
EC50 (rat EP4 receptor [1]): > 10000 nM | EC50 (rat EP2 receptor): > 10000 nM

CCC#CCC(C)[C@H](O)/C=C/[C@H]1CCC(=O)N1C/C=C\c1ccc(C(=O)O)s1 (mixture of isomers) [Example 15C, 5-((Z)-3-((2R)-2-((3S,4R/S,E)-3-hydroxy-4-methylnon-1-en-6-yn-1-yl)-5-oxopyrrolidin-1-yl)prop-1-en-1-yl)thiophene-2-carboxylic acid]
EC50 (rat EP4 receptor [1]): 947 nM | EC50 (rat EP2 receptor): > 10000 nM

CCC#CCC(C)[C@@H](O)/C=C/[C@H]1CCC(=O)N1C/C=C\c1ccc(C(=O)O)s1 (mixture of isomers) [Example 15D, 5-((Z)-3-((2R)-2-((3R,4R/S,E)-3-hydroxy-4-methylnon-1-en-6-yn-1-yl)-5-oxopyrrolidin-1-yl)prop-1-en-1-yl)thiophene-2-carboxylic acid]
EC50 (rat EP4 receptor [1]): 1600 nM | EC50 (rat EP2 receptor): > 10000 nM

CC(CC#Cc1ccccc1)[C@H](O)/C=C/[C@H]1CCC(=O)N1C/C=C\c1ccc(C(=O)O)s1 (mixture of isomers) [Example 16C, 5-((Z)-3-((2R)-2-((3S,4R/S,E)-3-hydroxy-4-methyl-7-phenylhept-1-en-6-yn-1-yl)-5-oxopyrrolidin-1-yl)prop-1-en-1-yl)thiophene-2-carboxylic acid]
EC50 (rat EP4 receptor [1]): 67.2 nM | EC50 (rat EP2 receptor): > 10000 nM

CC(CC#Cc1ccccc1)[C@@H](O)/C=C/[C@H]1CCC(=O)N1C/C=C\c1ccc(C(=O)O)s1 (mixture of isomers) [Example 16D, 5-((Z)-3-((2R)-2-((3R,4R/S,E)-3-hydroxy-4-methyl-7-phenylhept-1-en-6-yn-1-yl)-5-oxopyrrolidin-1-yl)prop-1-en-1-yl)thiophene-2-carboxylic acid]
EC50 (rat EP4 receptor [1]): 1200 nM | EC50 (rat EP2 receptor): > 10000 nM

COC(=O)CCCCCCN1C(=O)CC[C@@H]1/C=C/[C@@H](O)CCC#Cc1ccccc1 (single isomer, unassigned) [Example 5A]
EC50 (rat EP4 receptor [1]): 77.7 nM | EC50 (rat EP2 receptor): > 10000 nM

COC(=O)CCCCCCN1C(=O)CC[C@@H]1/C=C/[C@H](O)CCC#Cc1ccccc1 (single isomer, unassigned) [Example 5B]
EC50 (rat EP4 receptor [1]): 41.5 nM | EC50 (rat EP2 receptor): > 5000 nM

CCC#C[C@H](O)/C=C/[C@H]1CCC(=O)N1CCCCCCC(=O)OC (single isomer, unassigned) [Example 6A]
EC50 (rat EP4 receptor [1]): 6.71 nM | EC50 (rat EP2 receptor): > 3000 nM

CC#CC[C@@H](C)[C@H](O)/C=C/[C@H]1CCC(=O)N1CCCCCCC(=O)O [Example 1F, 7-((R)-2-((3S,4R,E)-3-hydroxy-4-methyloct-1-en-6-yn-1-yl)-5-oxopyrrolidin-1-yl)heptanoic acid]
EC50 (rat EP4 receptor [1]): 5.79 nM | melting point: 100 to 101 °C | EC50 (rat EP2 receptor): 184 nM | IC50 [2]: 18 nM | Ki [2]: 6.9 nM

O=C(O)CCCCCCN1C(=O)CC[C@@H]1/C=C/[C@@H](O)C#Cc1ccccc1 [Example 7C, 7-((R)-2-((R,E)-3-hydroxy-5-phenylpent-1-en-4-yn-1-yl)-5-oxopyrrolidin-1-yl)heptanoic acid]
EC50 (rat EP4 receptor [1]): 22.3 nM | EC50 (rat EP2 receptor): > 10000 nM

CCC#CC[C@H](C)[C@H](O)/C=C/[C@H]1CCC(=O)N1CCc1ccc(C(=O)O)cc1 [Example 9C, 4-(2-((R)-2-((3S,4S,E)-3-hydroxy-4-methylnon-1-en-6-yn-1-yl)-5-oxopyrrolidin-1-yl)ethyl)benzoic acid]
EC50 (rat EP4 receptor [1]): 0.02 nM | EC50 (rat EP4 receptor [3]): 0.31 nM | IC50 [2]: 0.67 nM | Ki [2]: 0.25 nM

CCC#CCC(C)[C@H](O)/C=C/[C@H]1CCC(=O)N1CC#Cc1ccc(C(=O)O)s1 (stereo partly drawn) [Example 13C, 5-(3-((2R)-2-((3S,E)-3-hydroxy-4-methylnon-1-en-6-yn-1-yl)-5-oxopyrrolidin-1-yl)prop-1-yn-1-yl)thiophene-2-carboxylic acid]
EC50 (rat EP4 receptor [1]): 18.3 nM | EC50 (rat EP2 receptor): > 10000 nM

CCC#CC[C@H](C)[C@H](O)/C=C/[C@H]1CCC(=O)N1CCCc1ccc(C(=O)O)s1 [Example 17D, 5-(3-((R)-2-((3S,4S,E)-3-hydroxy-4-methylnon-1-en-6-yn-1-yl)-5-oxopyrrolidin-1-yl)propyl)thiophene-2-carboxylic acid]
EC50 (rat EP4 receptor [1]): 0.32 nM | EC50 (rat EP4 receptor [3]): 1.54 nM | EC50 (rat EP2 receptor): 5300 nM | IC50 [2]: 6.1 nM | Ki [2]: 2.3 nM

CCC#CCC(C)[C@H](O)/C=C/[C@H]1CCC(=O)N1CCCc1ccc(C(=O)O)s1 (stereo partly drawn) [Example 17F, 5-(3-((R)-2-((3S,E)-3-hydroxy-4-methylnon-1-en-6-yn-1-yl)-5-oxopyrrolidin-1-yl)propyl)thiophene-2-carboxylic acid]
EC50 (rat EP4 receptor [1]): 0.091 nM | EC50 (rat EP2 receptor): > 10000 nM

CCC#CCC(C)[C@@H](O)/C=C/[C@H]1CCC(=O)N1CCCc1ccc(C(=O)O)s1 (stereo partly drawn) [Example 17G, 5-(3-((R)-2-((3R,E)-3-hydroxy-4-methylnon-1-en-6-yn-1-yl)-5-oxopyrrolidin-1-yl)propyl)thiophene-2-carboxylic acid]
EC50 (rat EP4 receptor [1]): 18.4 nM | EC50 (rat EP2 receptor): > 10000 nM

CC(CC#Cc1ccccc1)[C@H](O)/C=C/[C@H]1CCC(=O)N1CCCc1ccc(C(=O)O)s1 (stereo partly drawn) [Example 18C, 5-(3-((2R)-2-((3S,E)-3-hydroxy-4-methyl-7-phenylhept-1-en-6-yn-1-yl)-5-oxopyrrolidin-1-yl)propyl)thiophene-2-carboxylic acid]
EC50 (rat EP4 receptor [1]): < 0.01 nM | EC50 (rat EP2 receptor): > 10000 nM

CC(CC#Cc1ccccc1)[C@@H](O)/C=C/[C@H]1CCC(=O)N1CCCc1ccc(C(=O)O)s1 (stereo partly drawn) [Example 18D, 5-(3-((2R)-2-((3R,E)-3-hydroxy-4-methyl-7-phenylhept-1-en-6-yn-1-yl)-5-oxopyrrolidin-1-yl)propyl)thiophene-2-carboxylic acid]
EC50 (rat EP4 receptor [1]): 2.03 nM | EC50 (rat EP2 receptor): > 10000 nM
